From patent US20250359578A1, “WATER-SOLUBLE CREATINE AGGLOMERATE” (Alzchem Trostberg GmbH, priority 2022, published 2025)

Experiments:
Assay type in all cases: physicochemical
[1] = Determination of pourability (drainage funnel); parameters: key: Solid trickles through the 2.5 mm outlet: Grade 1; Solid trickles through the 5 mm outlet: Grade 2; Solid trickles through the 8 mm outlet: Grade 3; Solid trickles through the 12 mm outlet: Grade 4; Solid trickles through the 18 mm outlet: Grade 5; Solid does not trickle through the 18 mm outlet: Grade 6; settings: grade by outlet diameter of test funnel, 50 mL sample; lower grade is better
Protocol: 2. Determination of Pourability (Drainage Funnel):
The test equipment consists of five test funnels with the same diameter (36 mm inner diameter) and 28 degree tilt, but with different outlet diameters (2.5 mm; 5 mm; 8 mm; 12 mm and 18 mm). A 50 mL sample of creatine or the creatine formulation is filled into the test funnel, whereby the outlet is closed from below so that no material can drain during filling. In the next step, the outlet is opened completely—without shaking the test funnel—so that the entire outlet cross-section is released. The evaluation parameter is the diameter at which the solid trickles through independently and without external influence.
The lower the grade, the better the pourability.

[2] = Determination of the angle of repose (DIN ISO 4324)
Protocol: 3. Determination of the Angle of Repose
The angle of repose was determined according to the method DIN ISO 4324 (1983-12) Surfactants; powders and granules; determination of the angle of repose. The smaller the angle of repose, the better the flow properties.

[3] = Determination of flowability (Evolution Powder Tester); settings: compression, no time consolidation
Protocol: 4. Determination of Flowability
Flowability of solids (powders and agglomerates) is determined using the “Evolution Powder Tester” measuring device from PS Prozesstechnik GmbH, Basel, Switzerland. Flowability is shown in the dimensionless number [ffc]. The method used is determination by compression on the Evolution Powder Tester; no time consolidation is carried out. For this purpose, 25 mL of the solid is weighed into the measuring cell and placed in the measuring device. After starting the measurement, the solid is compressed in the measuring cell at a stamping speed of 15 mm per minute and a force (F1) of 10000 kPa for 30 seconds. The resulting solid compact in the measuring cell is then loaded again with a stamping speed of 10 mm per minute and slowly increasing force (F2) until the solid compact breaks. The ratio of the force (F1) for compression and the force (F2) for breaking the compact corresponds to the flowability [ffc] and is calculated using the formula: […]
The following assessment applies to the classification of flowability [ffc]: […]

[4] = Determination of dustiness (DustView II); settings: 30.0 g sample, maximum attenuation plus value at 30 seconds
Protocol: 5. Determination of Dustiness
The dustiness of solids (powders and agglomerates) is represented in the dimensionless dust number. The dust number is determined using the DustView II dust measuring device from Palas GmbH, Karlsruhe.
Thereby, 30.0 g of a sample is weighed and placed in the funnel on the flap. The measurement is then started by pressing a button on the control panel. The flap opens and the solid falls freely into the dust box. The impact of the solid material whirls up the dust particles. As a result, the light beam emitted by the laser is attenuated by the swirling dust and the attenuated light beam is detected at the receiver. The degree of attenuation (transmission signal) compared to the light beam emitted by the light source is a measure of the dustiness of the solid. A value of 100 means the maximum possible attenuation of the light beam and a value of 0 means no attenuation of the light beam. To determine the dust number, the value of the maximum attenuation of the light beam is added to the value at 30 seconds after the start of the measurement and output as the dust number.
The lower the dust number, the less dusty the solid is.

[5] = Determination of the bulk density (DIN ISO 697)
Protocol: 6. Determination of the Bulk Density
The bulk density was determined according to the method DIN ISO 697 (1984-01) surfactants; detergents; determination of bulk density; method by measuring the mass of a given volume.
The higher the bulk density, the more advantageous the handling.

[6] = Determination of the grain size distribution (laser diffraction, HELOS/KR)
Protocol: 7. Determination of the Grain Size Distribution
The grain size distribution was determined using a laser diffraction method on a “HELOS/KR” grain size measuring device from Sympatec GmbH. The R6 measuring aperture was used, which covers a measuring range of 0.5 to 1750 μm. The sample was fed via a vibrating chute with 60% power and a dispersion pressure of 2.5 bar. The software version “WINDOX 5.1.2.0, LD” was used for evaluation. Setting the trigger conditions: Time base 100.00 ms, start at c.opt>=1.0%, validity c.opt from 1.0% to 14.0%, stop at 5.000s c.opt<=0.9% or 10.000s real time. The x10, x50 and x90 values were used to assess the agglomerate quality, represented as the distribution sum Q3 in a histogram of the grain size distribution.

[7] = Determination of the dissolution rate (mass of filter residue); settings: 1.75 g in 175 ml water at 23° C., stirred 10 seconds
Source text: The moist filter residue is dried. The mass of the filter residue serves as a measure of the dissolution rate; the lower the mass, the better the dissolution rate.

Compound	Pourability [1]	Angle of repose [2]	Flowability [ffc] [3]	Dustiness [dust number] [4]	Bulk density [5]	Grain size distribution ×10 value ([6]; distribution sum Q3)	Grain size distribution ×90 value ([6]; distribution sum Q3)	Grain size distribution ×50 value ([6]; distribution sum Q3, monohydrate)	Undissolved portion to 1.75 g [7]	Grain size distribution ×50 value ([6]; distribution sum Q3, listed as non-ground creatine monohydrate, monohydrate)
CN(CC(=O)O)C(=N)N.O [Example 6, creatine monohydrate]	6	54 °	1.9	23.2	270 g/L	1.32 μm	45.8 μm	13.0 μm	–	–
CN(CC(=O)O)C(=N)N.O [creatine monohydrate]	–	–	–	–	–	–	–	–	632.9 mg	171 μm
